Reference: publication PMC3744471, “Mitochondria Are the Target Organelle of Differentiation-Inducing Factor-3, an Anti-Tumor Agent Isolated from Dictyostelium Discoideum” (PLoS ONE, 2013)

Assays:
[1] = Fluorescence microscopy: membrane permeability and cellular localization; assay type: cell-based, human; conditions: human, pH 7.4, HeLa, read-out: Time to reach maximal level in cells
Protocol: (§1) HeLa cells were cultured for 1–2 days with 2 ml DMEM-FBS in 35-mm tissue culture dishes (Becton Dickinson), washed twice with PBS(–), and then fixed for 15–20 min at room temperature with 2 ml of 3.7% (v/v) formaldehyde in PBS(–). The cells were then washed twice with PBS(–) and used for staining with the fluorescent probes. Alternatively, the fixed cells were treated for 15–20 min with 2 ml of 0.1% (w/v) Triton X-100 in PBS(–), washed twice with PBS(–), and used for staining with the fluorescent probes. […]
(§2) For high magnification multi-color imaging, cells were incubated for the appropriate times with 2 ml of DMEM-FBS (HeLa and 3T3-L1) or MEM-α-FBS (LM8) containing various compounds in 35-mm plastic dishes (tissue culture treated µ-Dish; ibidi, Martinsried, Germany). The cells were washed twice with 2 ml of PBS(–), submerged in 2 ml of Hepes buffer (pH 7.4), and observed at room temperature with a Keyence BZ-9000 fluorescence microscope (Osaka, Japan) equipped with an oil immersion 100× lens (CFI Plan Apo VC100XH) and multi-filters that can distinguish four fluorescent probes simultaneously. […]

HeLa cells = test: as above; assay type: cell-based, human; conditions: 20 µM
Protocol: as §1, §2

In the case of `CCCCCC(=O)c1c(O)cc(OCCCCNC(=O)CCC2=[N+]3C(=Cc4c(C)cc(C)n4[B-]3(F)F)C=C2)c(Cl)c1O` [BODIPY-DIF-3], the Tmax at 20 µM [1] is reported as ≤ 30 min and the “Time to penetrate the cell membrane” value (HeLa cells) is reported as ≤ 2 min.
